Here are results for 20 compounds from patent publication US20220332700A1, “NOVEL APOPTOSIS SIGNAL-REGULATING KINASE 1 INHIBITORS” (MANKIND PHARMA LTD, priority 2019, published 2022).

The IC50 is the midpoint of a concentration-inhibition curve.

The target of one experiment is T1, recombinant ASK1 (Homo sapiens, UniProt Q99683).
T1 construct: purchased Carna Biosciences
Description: ASK1 Biochemical Assay (HTRF KinEASE-STK S3). The conditions noted are these: ATP 100 μM; read-out: Biochemical Assay IC50. The method, then:
ASK1 biochemical assay was standardized using recombinant ASK1 (Carna Biosciences), substrate and detection reagents from Cisbio HRTF KinEASE-STK S3 kit. Enzyme concentration, ATP, biotinylated STK substrate and STK antibodies were titrated for enzyme assay. Assay was carried out in ASK1 kinase buffer, 10 mM MOPS pH-7, 10 mM Mg-acetate, 1 mM DTT, 0.025% NP40, 1.5% glycerol and 0.05% BSA. DMSO was used as vehicle control with a final concentration of 1%. A 5 ng of ASK1 enzyme was incubated with compound for 1 hour at 23° C. on a shaker at 100rpm. ATP and biotin substrate was added at a final concentration of 100 μM and 1 μM and incubated for 3 hours at 23° C. on a shaker at 100rpm. […] Delta F ratios were calculated from data obtained at excitation (337 nm) and emission wavelengths (665 nm and 620-10 nm). Substrate blank values was considered as negative control. Values from negative control was substrated from vehicle control and compound treated wells. Enzyme inhibition by compounds were calculated from vehicle controls, which represent uninterrupted enzyme's activity.
In general terms: In TR-FRET formats the signal depends on donor and acceptor labels being close together.

In a further experiment the target is T2, Human ASK1 (Homo sapiens, UniProt Q99683).
T2 construct: expressed in transfected cells; host or cells: HEK293T-AP1
T2 sequence (Q99683 1-1374): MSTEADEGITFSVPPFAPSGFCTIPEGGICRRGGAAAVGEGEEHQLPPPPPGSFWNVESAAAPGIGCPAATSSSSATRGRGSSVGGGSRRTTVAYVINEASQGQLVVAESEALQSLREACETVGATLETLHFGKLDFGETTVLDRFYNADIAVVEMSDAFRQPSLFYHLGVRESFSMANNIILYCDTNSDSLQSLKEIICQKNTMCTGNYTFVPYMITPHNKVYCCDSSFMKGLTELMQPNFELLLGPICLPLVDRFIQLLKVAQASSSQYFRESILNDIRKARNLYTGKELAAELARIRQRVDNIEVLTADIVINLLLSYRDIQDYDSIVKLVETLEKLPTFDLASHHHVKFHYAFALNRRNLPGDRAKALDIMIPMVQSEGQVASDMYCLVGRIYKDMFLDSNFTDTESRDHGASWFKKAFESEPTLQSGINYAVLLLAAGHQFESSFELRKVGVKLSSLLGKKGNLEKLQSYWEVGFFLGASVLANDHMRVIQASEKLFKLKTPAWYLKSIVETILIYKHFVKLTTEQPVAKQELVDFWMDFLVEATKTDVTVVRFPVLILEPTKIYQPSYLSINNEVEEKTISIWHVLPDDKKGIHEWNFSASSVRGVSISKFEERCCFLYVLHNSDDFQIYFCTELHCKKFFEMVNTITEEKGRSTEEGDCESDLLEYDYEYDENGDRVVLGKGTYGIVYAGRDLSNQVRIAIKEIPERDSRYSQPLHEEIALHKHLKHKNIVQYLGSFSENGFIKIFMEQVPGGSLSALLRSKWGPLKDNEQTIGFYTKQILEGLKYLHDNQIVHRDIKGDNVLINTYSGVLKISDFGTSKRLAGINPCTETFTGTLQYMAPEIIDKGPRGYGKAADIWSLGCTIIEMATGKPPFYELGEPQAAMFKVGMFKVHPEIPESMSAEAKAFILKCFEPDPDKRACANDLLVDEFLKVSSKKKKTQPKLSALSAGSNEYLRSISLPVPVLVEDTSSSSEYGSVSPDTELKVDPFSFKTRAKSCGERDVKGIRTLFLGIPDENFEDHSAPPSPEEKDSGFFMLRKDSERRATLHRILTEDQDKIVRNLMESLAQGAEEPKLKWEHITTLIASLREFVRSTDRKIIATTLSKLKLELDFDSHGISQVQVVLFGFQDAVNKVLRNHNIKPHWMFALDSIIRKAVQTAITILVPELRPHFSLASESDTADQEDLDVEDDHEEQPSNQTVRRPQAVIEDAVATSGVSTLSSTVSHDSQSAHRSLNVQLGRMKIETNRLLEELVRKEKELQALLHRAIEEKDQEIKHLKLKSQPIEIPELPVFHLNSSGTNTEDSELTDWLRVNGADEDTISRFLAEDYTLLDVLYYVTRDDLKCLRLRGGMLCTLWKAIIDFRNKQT
Kind of experiment: ASK1 Cell Based Assay (phospho p38 read out in hASK1 transfected HEK293T-AP1 cells). The conditions noted are these: HEK293T-AP1 cells, 1 mM hydrogen peroxide, phospho p38; read-out: Cell Based Assay IC50. On the procedure:
HEK293T-AP1 cells were seeded at a density of 20,000 cells per well in a poly-d-lysine coated 96 well microplate. Next day, cells were transfected with hASK1-pcDNA3.1 vector using lipofectamine 3000. After 24 hours of transfection, cells were treated with compounds for 24 hours in assay medium. DMSO was used as a vehicle control with a final DMSO concentration of 0.2%. On 4th day, medium was discarded and cells were activated with 1 mM hydrogen peroxide for 1 hour in the presence of compounds. Cells were lysed for 1 hour with 1× lysis buffer on a shaker at 100 rpm. Sixteen microliters of lysate was collected into a 384 well small volume plate. Phospho p38 levels in the lysate was detected by using CisbioPhospho-p38 MAPK (Thr180/Tyr182) #64P38PEG.Four microliters of phospho p38 antibodies labelled with europium cryptate and d2 acceptor, were added to the lysate and incubated overnight. TR-FRET was measured at an excitation of 335 nm and emission was measured at 615 nm and 665 nm in BMG FLUOstar multimode reader.
Compounds were assessed for ASK1 inhibition based on phospho p38 read out. […] Background control values were susbtracted from vehicle control as well as from compound treated wells.

Regarding `CC(C)n1cnnc1-c1cccc(N2CCN(c3cccc(-n4ccnc4)c3)C2=O)n1` [Example 1002, 1-(3-(1H-imidazol-1-yl)phenyl)-3-(6-(4-isopropyl-4H-1,2,4-triazol-3-yl)pyridin-2-yl)imidazolidin-2-one], the IC50 at recombinant ASK1 is 0.07 µM; on Human ASK1 it was above 1 µM. With `CC(C)n1cnnc1-c1cccc(N2CCN(c3cccc(-c4ccc(S(C)(=O)=O)cc4)c3)C2=O)n1` [Example 1007, 1-(6-(4-isopropyl-4H-1,2,4-triazol-3-yl)pyridin-2-yl)-3-(4′-(methylsulfonyl)-[1,1′-biphenyl]-3-yl)imidazolidin-2-one], the IC50 was 0.03 µM on recombinant ASK1 and above 1 µM on Human ASK1.

For the compound `CC(C)n1cnnc1-c1cccc(N2CCN(c3cccc(-c4ccc(S(C)(=O)=O)nc4)c3)C2=O)n1` [Example 1010, 1-(6-(4-isopropyl-4H-1,2,4-triazol-3-yl)pyridin-2-yl)-3-(3-(6-(methylsulfonyl)pyridin-3-yl)phenyl)imidazolidin-2-one], the values for the IC50 at recombinant ASK1 and on Human ASK1 were 0.025 µM and above 1 µM, respectively. For `CC(C)n1cnnc1-c1cccc(N2CCN(c3ccc(S(N)(=O)=O)cc3)C2=O)n1` [Example 1023, 4-(3-(6-(4-isopropyl-4H-1,2,4-triazol-3-yl)pyridin-2-yl)-2-oxoimidazolidin-1-yl)benzenesulfonamide], the IC50 on Human ASK1 was above 1 µM. For `CC(C)n1cnnc1-c1cccc(N2CCN(c3ccc(N4CCC(C)(C)CC4)cc3)C2=O)n1` [Example 1070, 1-(6-(4-isopropyl-4H-1,2,4-triazol-3-yl)pyridin-2-yl)-3-(4-(4,4-dimethylpiperidin-1-yl)phenyl)imidazolidin-2-one], the IC50 at recombinant ASK1 was below 0.1 µM.

On to `CC(C)n1cnnc1-c1cccc(N2CCN(c3ccc(N4CCC(O)CC4)nc3)C2=O)n1` [Example 1072, 1-(6-(4-hydroxypiperidin-1-yl)pyridin-3-yl)-3-(6-(4-isopropyl-4H-1,2,4-triazol-3-yl)pyridin-2-yl)imidazolidin-2-one], for which the half-inhibitory concentration (IC50) at recombinant ASK1 is above 0.1 µM. For `Cc1cc(N2CCN(c3cccc(-c4nncn4C(C)C)n3)C2=O)ccc1N1CCOCC1` [Example 1079, 1-(6-(4-isopropyl-4H-1,2,4-triazol-3-yl)pyridin-2-yl)-3-(3-methyl-4-morpholinophenyl)imidazolidin-2-one], the IC50 on recombinant ASK1 is below 0.1 µM. Turning to `CC(C)n1cnnc1-c1cccc(N2CCN(c3ccc(N4[C@H](C)COC[C@H]4C)cc3)C2=O)n1` [Example 1086, 1-(6-(4-isopropyl-4H-1,2,4-triazol-3-yl)pyridin-2-yl)-3-(4-((3R,5R)-3,5-dimethylmorpholino)phenyl)imidazolidin-2-one], the 50% inhibitory concentration (IC50) on recombinant ASK1 was below 0.1 µM. `CC(C)n1cnnc1-c1cccc(N2CCN(c3ccc(N4CC(O)(C(C)C)C4)cc3)C2=O)n1` [Example 1089, 1-(4-(3-hydroxy-3-isopropylazetidin-1-yl)phenyl)-3-(6-(4-isopropyl-4H-1,2,4-triazol-3-yl)pyridin-2-yl)imidazolidin-2-one]: the IC50 on recombinant ASK1 was below 0.1 µM. The same measure, in the same setting: as for `CC(C)n1cnnc1-c1cccc(N2CCN(C)C2=O)n1` [Example 1099, 1-(6-(4-isopropyl-4H-1,2,4-triazol-3-yl)pyridin-2-yl)-3-methylimidazolidin-2-one], the figure is below 0.1 µM.

For the compound `CC(C)n1cnnc1-c1cccc(N2CCN(c3ccc(N4CCCC4)cc3)C2=O)n1` [Example 1100, 1-(6-(4-isopropyl-4H-1,2,4-triazol-3-yl)pyridin-2-yl)-3-(4-(pyrrolidin-1-yl)phenyl)imidazolidin-2-one], the IC50 on recombinant ASK1 was below 0.1 µM.

As for `CC(C)n1cnnc1-c1cccc(N2CCN(c3cnc(S(C)(=O)=O)nc3)C2=O)n1` [Example 1102, 1-(6-(4-isopropyl-4H-1,2,4-triazol-3-yl)pyridin-2-yl)-3-(2-(methylsulfonyl)pyrimidin-5-yl)imidazolidin-2-one], on recombinant ASK1, the IC50 is below 0.1 µM. For `CC(c1ccc(N2CCOCC2)cc1)N1CCN(c2cccc(-c3nncn3C(C)C)n2)C1=O` (centres unmarked) [Example 1111, 1-(6-(4-isopropyl-4H-1,2,4-triazol-3-yl)pyridin-2-yl)-3-(1-(4-morpholinophenyl)ethyl)imidazolidin-2-one], the IC50 at recombinant ASK1 is below 0.1 µM. Still for that read-out and setting: the result for `COCCCNC(=O)c1ccc(N2CCN(c3cccc(-c4nncn4C(C)C)n3)C2=O)cn1` [Example 1117, 5-(3-(6-(4-isopropyl-4H-1,2,4-triazol-3-yl)pyridin-2-yl)-2-oxoimidazolidin-1-yl)-N-(3-methoxypropyl)pyridine-2-carboxamide] reads below 0.1 µM. For `CNC(=O)C1CCN(c2ccc(N3CCN(c4cccc(-c5nncn5C(C)C)n4)C3=O)cn2)C1` (centres unmarked) [Example 1119, 1-(5-(3-(6-(4-isopropyl-4H-1,2,4-triazol-3-yl)pyridin-2-yl)-2-oxoimidazolidin-1-yl)pyridin-2-yl)-N-methylpyrrolidine-3-carboxamide], the IC50 at recombinant ASK1 was below 0.05 µM.

For `CC(C)n1cnnc1-c1cccc(N2CCN(c3ccc(N4CCC(S(C)(=O)=O)CC4)nc3)C2=O)n1` [Example 1120, 1-(6-(4-isopropyl-4H-1,2,4-triazol-3-yl)pyridin-2-yl)-3-(6-(4-(methylsulfonyl)piperidin-1-yl)pyridin-3-yl)imidazolidin-2-one], at recombinant ASK1, the IC50 was below 0.1 µM. The same measure, in the same setting: the result for `CC(C)n1cnnc1-c1cccc(N2CCN(c3ccc(N4CCC(N(C)C)CC4)nc3)C2=O)n1` [Example 1121, 1-(6-(4-(dimethylamino)piperidin-1-yl)pyridin-3-yl)-3-(6-(4-isopropyl-4H-1,2,4-triazol-3-yl)pyridin-2-yl)imidazolidin-2-one] reads below 0.1 µM; that for `CNC(=O)C1CN(c2ccc(N3CCN(c4cccc(-c5nncn5C(C)C)n4)C3=O)cn2)C1` [Example 1122, 1-(5-(3-(6-(4-isopropyl-4H-1,2,4-triazol-3-yl)pyridin-2-yl)-2-oxoimidazolidin-1-yl)pyridin-2-yl)-N-methylazetidine-3-carboxamide], below 0.1 µM. Turning to `CNC(=O)C1CCN(C(C)c2ccc(N3CCN(c4cccc(-c5nncn5C(C)C)n4)C3=O)cc2)CC1` (centres unmarked) [Example 1127, 1-(1-(4-(3-(6-(4-isopropyl-4H-1,2,4-triazol-3-yl)pyridin-2-yl)-2-oxoimidazolidin-1-yl)phenyl)ethyl)-N-methylpiperidine-4-carboxamide], the IC50 on recombinant ASK1 was below 0.1 µM. With `CC(C)n1cnnc1-c1cccc(N2CCN(c3ccnc(N4CCOCC4)c3)C2=O)n1` [Example 1132, 1-(6-(4-isopropyl-4H-1,2,4-triazol-3-yl)pyridin-2-yl)-3-(2-morpholinopyridin-4-yl)imidazolidin-2-one], on recombinant ASK1, the IC50 is above 1 µM.
